# How the values were obtained:
# U87EGFRvIII xenografts = assay: U87EGFRvIII s.c. xenograft, tumor growth; type: in vivo; details: s.c. U87EGFRvIII in immunodeficient mice; mAbs i.p. 5 mg/kg days 8, 12, 15; erlotinib 150 mg/kg 6 times per week
# Method: Illustrative but not limiting examples of immunodeficient strains of mice that can be used are nude mice such as CD-1 nude, Nu/Nu, Balb/c nude, NIH-III (NIH-bg-nu-xid BR); scid mice such as Fox Chase SCID (C.B-17 SCID), Fox Chase outbred SCID and SCID Beige; mice deficient in RAG enzyme; as well as nude rats. Experiments are carried out as described previously (Kim et al., Nature 362:841, 1992, which is incorporated herein by reference). Human tumor cells typically grown in complete DMEM medium are typically harvested in HBSS. Female immunodeficient, e.g., athymic nude mice (4-6 wks old) are injected s.c. with typically 5×10^6 cells in 0.2 ml of HBSS in the dorsal areas. When the tumor size reaches 50-100 mm^3, the mice are grouped randomly and appropriate amounts of the agents are administered. […] Tumor sizes are determined typically twice a week by measuring in two dimensions [length (a) and width (b)]. Tumor volume is calculated according to V=ab^2/2 and expressed as mean tumor volume±SEM. […] The effect of the agents may measured by growth of the tumor with time, prolongation of the survival of the mice, or increase in percent of the mice surviving at a given time or indefinitely. […]
# [1] = test system: U87EGFRvIII intracranial xenografts; assay: U87EGFRvIII intracranial xenograft, survival; type: in vivo, mice; details: treated day 5 to 21, 5 mg/kg mAb twice per week, 150 mg erlotinib 6 times per week
# Method: In this experiment, mice were implanted intracranially with U87EGFRvIII cells as described (Kim et al, op. cit.) in order to more accurately simulate brain tumors. Four groups of mice were treated with control mAb 5G8 or anti-HGF mAb L27, either alone or in combination with erlotinib, from post-implantation day 5 to 21 (5 mg/kg mAb twice per week; 150 mg erlotinib 6 times per week).
# cMet receptor = cMet receptor (Homo sapiens, UniProt P08581); details: literature; read-out: Kd, high affinity binding site for cMet receptor; cited from earlier work
# [2] = molecular target: heparin sulfate proteoglycans (HSPG); details: literature; read-out: Kd, low affinity binding site for HSPG; cited from earlier work
# [3] = test system: GB-d1 gallbladder tumor xenografts; assay: GB-d1 gallbladder tumor s.c. xenograft, tumor growth; type: in vivo; details: NIH III xid/Beige/nude mice, mAbs 100 μg (approx. 5 mg/kg) twice per week from day 13
# Method: Human tumor cells typically grown in complete DMEM medium are typically harvested in HBSS. Female immunodeficient, e.g., athymic nude mice (4-6 wks old) are injected s.c. with typically 5×10^6 cells in 0.2 ml of HBSS in the dorsal areas. When the tumor size reaches 50-100 mm^3, the mice are grouped randomly and appropriate amounts of the agents are administered. […] Tumor sizes are determined typically twice a week by measuring in two dimensions [length (a) and width (b)]. Tumor volume is calculated according to V=ab^2/2 and expressed as mean tumor volume±SEM. The number of mice in each treatment group is at least 3, but more often between 5 and 10, e.g., 7. One group of mice is treated with both agents; other groups may be treated with neither agent or with one agent but not the other agent. […] Statistical analysis may be performed using, e.g., Student's t test.
# For example, such an experiment was performed with GB-d1 gallbladder tumor xenografts. Female NIH III xid/Beige/nude mice (4-6 wks old) were implanted with tumors by s.c. injection of 10^6 GB-d1 cells in the dorsal areas. When the tumor size reached ˜100 mm^3, the mice were grouped randomly into 4 groups of 5 mice each. […] The mAbs were administered twice per week at 100 μg (approx. 5 mg/kg body weight) from day 13. Tumor sizes were determined twice per week as described above.
# Chain of cMet receptor (P08581 25-1390): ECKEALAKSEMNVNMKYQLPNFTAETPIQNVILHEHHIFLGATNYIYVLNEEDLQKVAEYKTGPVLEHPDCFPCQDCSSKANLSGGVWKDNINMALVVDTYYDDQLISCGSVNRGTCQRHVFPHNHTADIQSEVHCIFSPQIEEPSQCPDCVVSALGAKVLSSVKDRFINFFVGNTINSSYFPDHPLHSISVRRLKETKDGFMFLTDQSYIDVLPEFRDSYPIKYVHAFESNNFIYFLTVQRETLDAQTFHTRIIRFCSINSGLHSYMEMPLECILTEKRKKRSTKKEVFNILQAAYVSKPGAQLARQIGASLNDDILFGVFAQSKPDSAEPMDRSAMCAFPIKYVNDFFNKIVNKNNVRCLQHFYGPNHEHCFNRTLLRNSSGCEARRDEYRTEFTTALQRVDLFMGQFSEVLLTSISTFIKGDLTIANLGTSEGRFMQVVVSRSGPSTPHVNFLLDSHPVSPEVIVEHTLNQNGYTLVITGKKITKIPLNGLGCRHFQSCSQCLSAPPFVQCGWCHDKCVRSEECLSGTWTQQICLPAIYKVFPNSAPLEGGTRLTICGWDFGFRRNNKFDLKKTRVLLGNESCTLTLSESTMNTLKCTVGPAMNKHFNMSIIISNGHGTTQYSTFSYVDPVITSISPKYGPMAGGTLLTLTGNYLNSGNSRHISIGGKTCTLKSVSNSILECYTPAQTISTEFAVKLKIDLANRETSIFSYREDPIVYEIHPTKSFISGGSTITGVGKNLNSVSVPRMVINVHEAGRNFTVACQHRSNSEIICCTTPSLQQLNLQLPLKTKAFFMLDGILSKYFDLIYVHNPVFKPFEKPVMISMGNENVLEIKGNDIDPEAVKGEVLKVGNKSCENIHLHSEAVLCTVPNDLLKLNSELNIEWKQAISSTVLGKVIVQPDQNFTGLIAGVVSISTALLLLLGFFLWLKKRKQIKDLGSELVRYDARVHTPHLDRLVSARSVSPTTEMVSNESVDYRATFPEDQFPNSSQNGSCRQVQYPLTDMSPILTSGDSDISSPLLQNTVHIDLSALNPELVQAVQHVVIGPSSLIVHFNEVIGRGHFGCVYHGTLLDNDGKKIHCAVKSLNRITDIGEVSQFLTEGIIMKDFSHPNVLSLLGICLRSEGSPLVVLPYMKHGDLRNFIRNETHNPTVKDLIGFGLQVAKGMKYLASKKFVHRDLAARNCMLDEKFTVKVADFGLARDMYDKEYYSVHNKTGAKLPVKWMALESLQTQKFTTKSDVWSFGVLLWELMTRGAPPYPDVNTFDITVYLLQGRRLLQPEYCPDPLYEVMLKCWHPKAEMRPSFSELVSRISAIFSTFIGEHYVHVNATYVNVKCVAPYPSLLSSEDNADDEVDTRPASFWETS
molecule,measurement,setting,value
"C#Cc1cccc(Nc2ncnc3cc(OCCOC)c(OCCOC)cc23)c1 [erlotinib, N-(3-ethynylphenyl)-6,7-bis(2-methoxyethoxy)-4-quinazolinamine]",inhibition of growth of xenografts (FIG. 2),U87EGFRvIII xenografts,only modestly inhibited growth of the tumors
same,prolongation of survival (FIG. 3),[1],slightly but significantly prolonged survival
"HGF: 102 kDa heterodimeric polypeptide growth factor, ligand of cMet",Kd,cMet receptor,0.2 nM
same,Kd,[2],1 nM
HuL2G7: humanized L2G7 anti-HGF mAb; heavy and light chains SEQ ID NO:1 and 2,inhibition of tumor growth (FIG. 1),[3],partially inhibited tumor growth

# Source: US20120076775A1, “Combination of HGF Inhibitor and EGF Inhibitor to Treat Cancer” (priority 2008, published 2012)
